Test [1] deals with HDAC6 (Homo sapiens (Human), UniProt Q9UBN7). The experiment in a line: HDAC6 enzymatic assay. To be noted: read-out: Human HDAC6 IC50. The format is biochemical. In short, it runs like this:
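Human HDAC6 activity was measured in duplicate 50 μl reactions holding 2 ng HDAC6, 10 uM of HDAC substrate and test compound in HDAC assay buffer (50 mM Tris-HCl, pH 7.4, 137 mM NaCl, 2.7 mM KCl, 0.05% Tween 20, 5 μg BSA) with 1% DMSO, for 17 hours at room temperature. HDAC Developer was added for 20 minutes before reading fluorescence at 360/460 nm.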

In test [2] the target is HDAC1 (Homo sapiens (Human), UniProt Q13547). As to the kind of experiment: HDAC1 enzymatic assay. The conditions noted are these: read-out: Human HDAC1 IC50. Type of test: biochemical. In short, it runs like this:
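HDAC1 activity was measured in duplicate 50 μl reactions containing 0.5 ng HDAC1, 10 uM of HDAC substrate, and test compound in buffer (50 mM Tris-HCl, pH 7.4, 137 mM NaCl, 2.7 mM KCl, 0.05% Tween 20, 5 μg BSA) with 1% DMSO, incubated 17 hours at room temperature. HDAC Developer was then added for 20 minutes and fluorescence read at 360/460 nm.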

Among the data in patent US10357493B2, “Metalloenzyme inhibitor compounds” (Selenity Therapeutics (Bermuda), Ltd., priority 2017, dated 2019) are IC50 values, retold here.

What is called IC50 is the concentration needed to halve the response being measured.

Chain of HDAC6 (Q9UBN7 whole entry): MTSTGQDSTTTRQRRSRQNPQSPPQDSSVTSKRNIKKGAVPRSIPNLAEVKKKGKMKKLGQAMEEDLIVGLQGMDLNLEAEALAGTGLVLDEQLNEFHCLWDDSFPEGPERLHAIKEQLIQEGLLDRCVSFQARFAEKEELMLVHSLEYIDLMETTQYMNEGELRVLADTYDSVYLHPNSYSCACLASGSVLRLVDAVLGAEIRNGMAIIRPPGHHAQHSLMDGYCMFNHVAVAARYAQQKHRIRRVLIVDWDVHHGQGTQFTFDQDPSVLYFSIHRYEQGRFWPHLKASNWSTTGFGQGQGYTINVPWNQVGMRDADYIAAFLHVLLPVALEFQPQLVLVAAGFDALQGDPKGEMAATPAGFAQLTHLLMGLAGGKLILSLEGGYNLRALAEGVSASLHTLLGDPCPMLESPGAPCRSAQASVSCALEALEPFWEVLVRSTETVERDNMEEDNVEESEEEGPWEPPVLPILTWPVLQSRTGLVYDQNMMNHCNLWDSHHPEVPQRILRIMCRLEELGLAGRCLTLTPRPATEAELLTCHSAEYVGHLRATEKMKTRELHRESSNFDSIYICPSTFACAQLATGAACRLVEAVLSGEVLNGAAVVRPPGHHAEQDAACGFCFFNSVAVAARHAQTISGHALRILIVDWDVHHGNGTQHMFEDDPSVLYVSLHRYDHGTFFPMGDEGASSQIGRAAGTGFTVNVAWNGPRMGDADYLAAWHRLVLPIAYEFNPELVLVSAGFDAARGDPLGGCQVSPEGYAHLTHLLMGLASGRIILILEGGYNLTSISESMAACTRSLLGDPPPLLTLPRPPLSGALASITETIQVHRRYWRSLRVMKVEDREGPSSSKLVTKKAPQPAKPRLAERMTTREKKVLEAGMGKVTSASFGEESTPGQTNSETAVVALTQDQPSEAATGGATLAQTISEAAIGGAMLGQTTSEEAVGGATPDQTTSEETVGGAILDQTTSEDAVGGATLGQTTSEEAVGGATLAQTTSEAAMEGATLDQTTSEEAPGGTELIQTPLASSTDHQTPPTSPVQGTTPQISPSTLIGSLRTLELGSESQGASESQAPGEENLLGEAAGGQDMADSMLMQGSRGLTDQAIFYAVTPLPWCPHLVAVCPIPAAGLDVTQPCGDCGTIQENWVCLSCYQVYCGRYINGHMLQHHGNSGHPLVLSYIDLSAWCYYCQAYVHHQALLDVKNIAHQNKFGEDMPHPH
Chain of HDAC1 (Q13547 whole entry): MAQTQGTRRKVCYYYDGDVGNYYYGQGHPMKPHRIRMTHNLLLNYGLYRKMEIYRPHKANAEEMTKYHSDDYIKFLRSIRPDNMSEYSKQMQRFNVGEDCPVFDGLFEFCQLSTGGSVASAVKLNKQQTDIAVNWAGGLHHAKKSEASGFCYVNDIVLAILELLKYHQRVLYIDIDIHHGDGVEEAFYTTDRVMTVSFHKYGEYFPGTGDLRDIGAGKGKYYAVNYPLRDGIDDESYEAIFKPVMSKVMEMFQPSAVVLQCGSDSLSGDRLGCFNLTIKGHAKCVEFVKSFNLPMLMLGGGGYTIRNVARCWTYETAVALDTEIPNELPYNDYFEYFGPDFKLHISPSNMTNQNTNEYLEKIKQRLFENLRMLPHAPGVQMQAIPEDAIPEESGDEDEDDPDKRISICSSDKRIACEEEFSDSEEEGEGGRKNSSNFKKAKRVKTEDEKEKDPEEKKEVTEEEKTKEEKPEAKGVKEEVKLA

With `Fc1ccc(C(Nc2ncc(-c3nnc(C(F)F)o3)cn2)C(F)(F)F)cc1` (stereo not shown) [Example 15, 5-(5-(difluoromethyl)-1,3,4-oxadiazol-2-yl)-N-(2,2,2-trifluoro-1-(4-fluorophenyl)ethyl)pyrimidin-2-amine], the IC50 in test [1] is 74 nM; in test [2] it was greater than 30000 nM.
On the same counts, the results for `Fc1ccc(-c2ccc(C3(Nc4ncc(-c5nnc(C(F)F)o5)cn4)CC3)cc2)cc1` [Example 16, 5-(5-(difluoromethyl)-1,3,4-oxadiazol-2-yl)-N-(1-(4′-fluoro-[1,1′-biphenyl]-4-yl)cyclopropyl) pyrimidin-2-amine] are 95 nM and greater than 30000 nM.
On the same counts, the results for `Fc1ccc(C2(Nc3ncc(-c4nnc(C(F)F)o4)cn3)CCN(c3ccccc3)CC2)cc1` [Example 17, 5-(5-(difluoromethyl)-1,3,4-oxadiazol-2-yl)-N-(4-(4-fluorophenyl)-1-phenylpiperidin-4-yl)pyrimidin-2-amine] are 160 nM and greater than 30000 nM.
On to `Fc1ccc(-c2cccc(C3(Nc4ncc(-c5nnc(C(F)F)o5)cn4)CC3)c2)cc1` [Example 18, 5-(5-(difluoromethyl)-1,3,4-oxadiazol-2-yl)-N-(1-(4′-fluoro-[1,1′-biphenyl]-3-yl)cyclopropyl)pyrimidin-2-amine], for which the IC50 in test [1] was 58 nM; in test [2] it was greater than 30000 nM.
On the same counts, the results for `Fc1ccc(C(COc2ccccc2)Nc2ncc(-c3nnc(C(F)F)o3)cn2)cc1` (stereo not shown) [Example 19, 5-(5-(difluoromethyl)-1,3,4-oxadiazol-2-yl)-N-(1-(4-fluorophenyl)-2-phenoxyethyl)pyrimidin-2-amine] are 47 nM and greater than 30000 nM.
On the same counts, the results for `CC(Nc1ncc(-c2nnc(C(F)F)o2)cn1)c1ccc(F)cc1` (stereo not shown) [Example 20, 5-(5-(difluoromethyl)-1,3,4-oxadiazol-2-yl)-N-(1-(4-fluorophenyl)ethyl)pyrimidin-2-amine] are 33 nM and greater than 30000 nM.
For `COCC(Nc1ncc(-c2nnc(C(F)F)o2)cn1)c1ccc(F)cc1` (stereo not shown) [Example 21, 5-(5-(difluoromethyl)-1,3,4-oxadiazol-2-yl)-N-(1-(4-fluorophenyl)-2-methoxyethyl)pyrimidin-2-amine], in that order: 77 nM and greater than 30000 nM.
On to `CCC(Nc1ncc(-c2nnc(C(F)F)o2)cn1)c1ccc(F)cc1` (stereo not shown) [Example 22, 5-(5-(difluoromethyl)-1,3,4-oxadiazol-2-yl)-N-(1-(4-fluorophenyl)propyl)pyrimidin-2-amine], for which the IC50 in test [1] was 71 nM; in test [2] it was greater than 30000 nM.
On the same counts, the results for `CCCC(Nc1ncc(-c2nnc(C(F)F)o2)cn1)c1ccc(F)cc1` (stereo not shown) [Example 23, 5-(5-(difluoromethyl)-1,3,4-oxadiazol-2-yl)-N-(1-(4-fluorophenyl)butyl)pyrimidin-2-amine] are 100 nM and greater than 30000 nM.
On the same counts, the results for `CC(C)C(Nc1ncc(-c2nnc(C(F)F)o2)cn1)c1ccc(F)cc1` (stereo not shown) [Example 24, 5-(5-(difluoromethyl)-1,3,4-oxadiazol-2-yl)-N-(1-(4-fluorophenyl)-2-methylpropyl)pyrimidin-2-amine] are 95 nM and greater than 30000 nM.
In the case of `N#Cc1ccc(C2(Nc3ncc(-c4nnc(C(F)F)o4)cn3)CC2)cn1` [Example 25, 5-(1-((5-(5-(difluoromethyl)-1,3,4-oxadiazol-2-yl)pyrimidin-2-yl)amino)cyclopropyl)picolinonitrile], the IC50 is greater than 1000 nM in test [1] and greater than 30000 nM in test [2].
On the same counts, the results for `CC(=O)N1CCC(Nc2ncc(-c3nnc(C(F)F)o3)cn2)(c2ccc(F)cc2)CC1` [Example 26, 1-(4-((5-(5-(difluoromethyl)-1,3,4-oxadiazol-2-yl)pyrimidin-2-yl)amino)-4-(4-fluorophenyl)piperidin-1-yl)ethan-1-one] are 140 nM and greater than 30000 nM.
On the same counts, the results for `FC(F)c1nnc(-c2cnc(NC3(C4CCCCC4)CC3)nc2)o1` [Example 27, N-(1-cyclohexylcyclopropyl)-5-(5-(difluoromethyl)-1,3,4-oxadiazol-2-yl)pyrimidin-2-amine] are 74 nM and greater than 30000 nM.
For `CC(C)C1(Nc2ncc(-c3nnc(C(F)F)o3)cn2)CC1` [Example 28, 5-(5-(difluoromethyl)-1,3,4-oxadiazol-2-yl)-N-(1-isopropylcyclopropyl)pyrimidin-2-amine], in that order: 610 nM and greater than 30000 nM.
As to `Fc1ccc2c(c1)CCC2Nc1ncc(-c2nnc(C(F)F)o2)cn1` (stereo not shown) [Example 29, 5-(5-(difluoromethyl)-1,3,4-oxadiazol-2-yl)-N-(5-fluoro-2,3-dihydro-1H-inden-1-yl)pyrimidin-2-amine], the IC50 in test [1] is 450 nM; in test [2], greater than 30000 nM.
For `O=C(C(Nc1ncc(-c2nnc(C(F)F)o2)cn1)c1ccc(F)cc1)N1CCOCC1` (stereo not shown) [Example 30, 2-((5-(5-(difluoromethyl)-1,3,4-oxadiazol-2-yl)pyrimidin-2-yl)amino)-2-(4-fluorophenyl)-1-morpholinoethan-1-one], in that order: 770 nM and greater than 30000 nM.
For `CC(Nc1ncc(-c2nnc(C(F)F)o2)cn1)c1ccc(F)cn1` (stereo not shown) [Example 31, 5-(5-(difluoromethyl)-1,3,4-oxadiazol-2-yl)-N-(1-(5-fluoropyridin-2-yl)ethyl)pyrimidin-2-amine], in that order: 120 nM and greater than 30000 nM.
Consider `FC(F)Oc1ccc(C2(Nc3ncc(-c4nnc(C(F)F)o4)cn3)CC2)cc1` [Example 32, N-(1-(4-(difluoromethoxy)phenyl)cyclopropyl)-5-(5-(difluoromethyl)-1,3,4-oxadiazol-2-yl)pyrimidin-2-amine], for which the results for the IC50 in test [1] and in test [2] were 59 nM and greater than 30000 nM, respectively.
For the compound `Fc1cc(OC(F)F)ccc1C1(Nc2ncc(-c3nnc(C(F)F)o3)cn2)CC1` [Example 33, N-(1-(4-(difluoromethoxy)-2-fluorophenyl)cyclopropyl)-5-(5-(difluoromethyl)-1,3,4-oxadiazol-2-yl)pyrimidin-2-amine], the IC50 was 29 nM in test [1] and greater than 30000 nM in test [2].
For `Fc1ccc2c(c1)CCCC2Nc1ncc(-c2nnc(C(F)F)o2)cn1` (stereo not shown) [Example 34, 5-(5-(difluoromethyl)-1,3,4-oxadiazol-2-yl)-N-(6-fluoro-1,2,3,4-tetrahydronaphthalen-1-yl)pyrimidin-2-amine], in that order: 790 nM and greater than 30000 nM.
For `O=C(Nc1ccccc1)C(Nc1ncc(-c2nnc(C(F)F)o2)cn1)c1ccc(F)cc1` (stereo not shown) [Example 35, 2-((5-(5-(difluoromethyl)-1,3,4-oxadiazol-2-yl)pyrimidin-2-yl)amino)-2-(4-fluorophenyl)-N-phenylacetamide], in that order: 170 nM and greater than 30000 nM.
On the same counts, the results for `Fc1ccc(C(Nc2ncc(-c3nnc(C(F)F)o3)cn2)C2CC2)cc1` (stereo not shown) [Example 36, N-(cyclopropyl(4-fluorophenyl)methyl)-5-(5-(difluoromethyl)-1,3,4-oxadiazol-2-yl)pyrimidin-2-amine] are 64 nM and greater than 30000 nM.
Turning to `Fc1ccc(C2(Nc3ncc(-c4nnc(C(F)F)o4)cn3)CCC(F)(F)CC2)cc1` [Example 37, N-(4,4-difluoro-1-(4-fluorophenyl)cyclohexyl)-5-(5-(difluoromethyl)-1,3,4-oxadiazol-2-yl)pyrimidin-2-amine], the IC50 was 180 nM in test [1] and greater than 30000 nM in test [2].
